Consider 1 compound from patent publication US7884077B2, “Methods for the treatment of mood disorders” (The McLean Hospital Corporation, priority 2006, dated 2011).

SMILES strings stand for the structures. “Also recorded” adds a separate entry of the source.

For one series, the system named is sigma receptors. The following applies: Bidlack et al., 2000; cited from earlier work.
The subject of series [1] is human subjects who have been diagnosed with bipolar disorder and are acutely manic. Kind of series: Open-label cumulative-dosing clinical trial of pentazocine in acutely manic subjects. Type of series: in vivo. To be noted: for YMRS mean: morning. On the procedure:
A trial study was conducted to determine the effect of pentazocine on the mood of human subjects who have been diagnosed with bipolar disorder and are acutely manic. Ten subjects (7 male and 3 female) between the ages of 18 and 65 were enrolled in the study. All subjects were admitted to the hospital with a primary diagnosis of bipolar mania by DSMIV criteria. […] Subjects with a current history of substance abuse or a recent history of opiate dependence were excluded. All subjects were deemed competent to give informed consent by non-study physicians. After complete description of the study to the subjects, written informed consent was obtained.
The current study was undertaken in full compliance with federal requirements and with institutional review board approval. The study was designed as an open-label cumulative-dosing trial.
The three-day study consisted of pre-treatment, treatment, and post-treatment days with subjects rated in the morning on all three days and multiple times on the day of treatment. On the treatment day, an initial 50 mg of pentazocine was given by mouth. A second dose was given two hours following the initial dose. Pentazocine was given as Talwin Nx (Sanofi-Synthlabo), consisting of 50 mg dose pentazocine with 0.5 mg naloxone (naloxone is added to limit the intra-venous abuse potential of this drug but is not absorbed when given by oral administration as used here).
Assessment of manic symptoms by YMRS were made daily at the same time in the morning on all three days of the study. As the YMRS was designed to reflect the past 48 hours, it is not sensitive to acute symptomatic change (IsHak et al, 2002) YMRS and DSMIV criteria were used as the basis for constructing a scale to detect acute changes in manic symptoms (The Mania Acute Change Scale or MACS). […] The MACS scale is available online at www.mcleanhospital.org. The MACS, which includes items from the YMRS and a brief assessment of dysphoria/depression was given along with the YMRS in the morning on all three days of the study. In addition, the MACS was given hourly for 6 hours starting with the first dose of pentazocine. All investigator ratings were performed by investigator Beth Murphy, M. D., Ph.D. A self-rating scale designed to assess manic symptoms and medication side effects was completed by subjects whenever the MACS was given. Staff reports were reviewed, with special note of the duration of sleep and whether any ‘pro re nata’ (PRN) medications were required. Data were analyzed using a repeated measures ANOVA (SPSS 14.0).

A further series has as its target mu opiate receptors (Homo sapiens, UniProt P35372). To be noted: Bidlack et al., 2000; cited from earlier work.
A further series addresses KOR (Homo sapiens, UniProt P41145). To be noted: Zhu et al., 1997; cited from earlier work.
The mark [2] stands for this setting: 50 mg by mouth at Hour 0 and Hour 2, hourly ratings.
[3] abbreviates: one hour after first 50 mg oral dose.
The mark [4] stands for this setting: second 50 mg oral dose given at hour 2.

Sequence of mu opiate receptors (P35372 whole entry): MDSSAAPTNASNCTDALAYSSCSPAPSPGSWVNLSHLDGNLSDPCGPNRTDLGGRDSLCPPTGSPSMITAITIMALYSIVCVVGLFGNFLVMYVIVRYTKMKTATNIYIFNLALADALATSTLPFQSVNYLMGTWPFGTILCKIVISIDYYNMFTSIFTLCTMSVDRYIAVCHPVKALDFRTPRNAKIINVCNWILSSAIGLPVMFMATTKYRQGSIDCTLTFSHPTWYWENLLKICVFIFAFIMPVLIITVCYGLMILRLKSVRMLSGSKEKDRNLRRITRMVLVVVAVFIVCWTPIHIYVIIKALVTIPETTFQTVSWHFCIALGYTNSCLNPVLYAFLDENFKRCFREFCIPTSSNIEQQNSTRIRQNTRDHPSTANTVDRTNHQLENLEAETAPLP
Sequence of KOR (P41145 whole entry): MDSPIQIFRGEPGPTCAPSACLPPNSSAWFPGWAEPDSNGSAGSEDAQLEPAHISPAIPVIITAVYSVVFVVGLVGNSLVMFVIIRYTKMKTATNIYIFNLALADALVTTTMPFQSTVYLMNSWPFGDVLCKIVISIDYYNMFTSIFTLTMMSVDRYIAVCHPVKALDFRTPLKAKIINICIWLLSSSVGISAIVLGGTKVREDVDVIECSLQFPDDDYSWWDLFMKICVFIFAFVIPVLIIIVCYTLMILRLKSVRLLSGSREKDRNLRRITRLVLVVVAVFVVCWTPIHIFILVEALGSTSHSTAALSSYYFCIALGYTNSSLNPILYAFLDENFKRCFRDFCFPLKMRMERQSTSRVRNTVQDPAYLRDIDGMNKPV

As to `CC(C)=CCN1CCC2(C)c3cc(O)ccc3CC1C2C` (centres unmarked) [pentazocine], the “affinity and effects at sigma receptors relative to KOR” value with sigma receptors is “lower affinity and weaker effects”. In series [1] (50 mg by mouth at Hour 0 and Hour 2), the dysphoria entry is on record as “No dysphoria was reported; also recorded: None of the subjects complained of dysphoria”. For the same compound, in series [1] (setting [2]), the “effect on manic symptoms (total MACS score)” value is “manic symptoms decreased; also recorded: All subjects experienced an improvement in manic symptoms; also recorded: transient but substantial and statistically significant reduction in manic symptoms”; the “effect on psychotic symptoms (clinician rating)” value is reported as “no significant changes in psychosis; also recorded: No subject experienced exacerbation of psychotic symptoms; also recorded: most subjects experienced a mild improvement in psychotic symptoms”; the “sedation (clinician rating, scale of 0-4)” value was “mild (half-point), nonsignificant, increases in sedation; also recorded: Sedation was low”. The “mean total MACS score” value in series [1] (Hour 0 (baseline), before first dose) is on record as 20.1. Moreover, the “mean total MACS score” value in series [1] (hour 2, when second dose was given) was 18.6. Moreover, the “mean total MACS score” value in series [1] (hour 3, one hour after second 50 mg oral dose) was found to be 11.0. Besides, in series [1] (setting [3]), the “mean change in total manic symptom ratings (MACS) from baseline” value is −8.8 and the “mean total MACS score” value is recorded as 11.3. The “mean change in total manic symptom ratings from baseline (decrease)” value in series [1] (one hour after first 50 mg oral dose, MACS, 10 subjects) is recorded as 44%. In series [1] (post-treatment day), the “rebound in symptoms after treatment” value is given as “no evidence of a rebound in symptoms after treatment” and the YMRS mean was 12.7 ± 8.4. Further, the YMRS mean in series [1] (pretreatment day) is listed as 23.6 ± 8.9. Also, in series [1] (setting [4]), the “fall in mean MACS score between hour 2 and hour 3” value was 7.6 points; the “fall in mean total manic symptom ratings (MACS) between hour 2 and hour 3” value is reported as 41%. The same compound came in with a YMRS mean in series [1] (treatment day) of 22.0 ± 6.9. Besides, in series [1] (two 50 mg oral doses two hours apart), the “tolerability / side effects” value is “well-tolerated; also recorded: No subject experienced significant side effects; also recorded: No adverse effects, including psychotomimetic effects, were observed or reported”. The “affinity and effects at mu opiate receptors relative to KOR” value on mu opiate receptors was “lower affinity and weaker effects”. The “efficacy at KOR” value on KOR is “partial agonist”.
